In PubChem BioAssay AID1963972 (Molecular Pharmacology Branch, DTP, NCI, 2024):

System: 945468-187-T-J2-PDC spheroids viability
Assay: Anticancer human tumor 945468-187-T-J2-PDC patient-derived rectal carcinoma cell line growth inhibition [PI3K]
Conditions: spheroids with HUVEC and MSC; for IC50: curve of first compound; for viability, T/C: stronger effect = lower value; active means viability on the fitted dose curve at most 10% of control; inactive means the rest
Method in brief: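 Tumor cells were combined with HUVEC and MSCs into spheroids, then dosed with PI3K-inhibitor combinations over half-log ranges capped near clinical Cmax or 10 microM.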

[1] = second compound 0.0316 µM, first compound 0.000316 µM
[2] = second compound 0.0316 µM, first compound 0.001 µM
[3] = second compound 0.0316 µM, first compound 0.00316 µM
[4] = second compound 0.0316 µM, first compound 0.01 µM
[5] = second compound 0.0316 µM, first compound 0.0316 µM
[6] = second compound 0.0316 µM, first compound 0.1 µM
[7] = second compound 0.1 µM, first compound 0.000316 µM
[8] = second compound 0.1 µM, first compound 0.001 µM
[9] = second compound 0.1 µM, first compound 0.00316 µM
[10] = second compound 0.1 µM, first compound 0.01 µM
[11] = second compound 0.1 µM, first compound 0.0316 µM
[12] = second compound 0.1 µM, first compound 0.1 µM
[13] = second compound 0.316 µM, first compound 0.000316 µM
[14] = second compound 0.316 µM, first compound 0.001 µM
[15] = second compound 0.316 µM, first compound 0.00316 µM
[16] = second compound 0.316 µM, first compound 0.01 µM
[17] = second compound 0.316 µM, first compound 0.0316 µM
[18] = second compound 0.316 µM, first compound 0.1 µM
[19] = second compound 1 µM, first compound 0.000316 µM
[20] = second compound 1 µM, first compound 0.001 µM
[21] = second compound 1 µM, first compound 0.00316 µM
[22] = second compound 1 µM, first compound 0.01 µM
[23] = second compound 1 µM, first compound 0.0316 µM
[24] = second compound 1 µM, first compound 0.1 µM
[25] = second compound 3.16 µM, first compound 0.000316 µM
[26] = second compound 3.16 µM, first compound 0.001 µM
[27] = second compound 3.16 µM, first compound 0.00316 µM
[28] = second compound 3.16 µM, first compound 0.01 µM
[29] = second compound 3.16 µM, first compound 0.0316 µM
[30] = second compound 3.16 µM, first compound 0.1 µM
[31] = second compound 10 µM, first compound 0.000316 µM
[32] = second compound 10 µM, first compound 0.001 µM
[33] = second compound 10 µM, first compound 0.00316 µM
[34] = second compound 10 µM, first compound 0.01 µM
[35] = second compound 10 µM, first compound 0.0316 µM
[36] = second compound 10 µM, first compound 0.1 µM
[37] = second compound 0.0316 µM, first compound 0.316 µM
[38] = second compound 0.0316 µM, first compound 1 µM
[39] = second compound 0.0316 µM, first compound 3.16 µM
[40] = second compound 0.0316 µM, first compound 10 µM
[41] = second compound 0.1 µM, first compound 0.316 µM
[42] = second compound 0.1 µM, first compound 1 µM
[43] = second compound 0.1 µM, first compound 3.16 µM
[44] = second compound 0.1 µM, first compound 10 µM
[45] = second compound 0.316 µM, first compound 0.316 µM
[46] = second compound 0.316 µM, first compound 1 µM
[47] = second compound 0.316 µM, first compound 3.16 µM
[48] = second compound 0.316 µM, first compound 10 µM
[49] = second compound 1 µM, first compound 0.316 µM
[50] = second compound 1 µM, first compound 1 µM
[51] = second compound 1 µM, first compound 3.16 µM
[52] = second compound 1 µM, first compound 10 µM
[53] = second compound 3.16 µM, first compound 0.316 µM
[54] = second compound 3.16 µM, first compound 1 µM
[55] = second compound 3.16 µM, first compound 3.16 µM
[56] = second compound 3.16 µM, first compound 10 µM
[57] = second compound 10 µM, first compound 0.316 µM
[58] = second compound 10 µM, first compound 1 µM
[59] = second compound 10 µM, first compound 3.16 µM
[60] = second compound 10 µM, first compound 10 µM
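Further: spheroids exposed to compounds for seven days before reading.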

CC(=O)c1c(C)c2cnc(Nc3ccc(N4CCNCC4)cn3)nc2n(C2CCCC2)c1=O + Cc1nc(NC(=O)N2CCCC2C(N)=O)sc1-c1ccnc(C(C)(C)C(F)(F)F)c1
inactive: viability, T/C [1] 79.2% | viability, T/C [2] 88.4% | viability, T/C [3] 89.4% | viability, T/C [4] 121% | viability, T/C [5] 79.5% | viability, T/C [6] 98.2% | viability, T/C [7] 86.1% | viability, T/C [8] 84.2% | viability, T/C [9] 89.6% | viability, T/C [10] 84.1% | viability, T/C [11] 110% | viability, T/C [12] 103% | viability, T/C [13] 93.7% | viability, T/C [14] 107% | viability, T/C [15] 95.5% | viability, T/C [16] 88.6% | viability, T/C [17] 118% | viability, T/C [18] 136% | viability, T/C [19] 118% | viability, T/C [20] 110% | viability, T/C [21] 75.7% | viability, T/C [22] 78% | viability, T/C [23] 94.9% | viability, T/C [24] 90.3% | viability, T/C [25] 79.2% | viability, T/C [26] 71.7% | viability, T/C [27] 82.8% | viability, T/C [28] 75.3% | viability, T/C [29] 83% | viability, T/C [30] 78.2% | viability, T/C [31] 83% | viability, T/C [32] 66.7% | viability, T/C [33] 78% | viability, T/C [34] 64.5% | viability, T/C [35] 92.7% | viability, T/C [36] 76.3%
> 0.1 µM: IC50 (second compound 0.0316 µM) | IC50 (second compound 0.1 µM) | IC50 (second compound 0.316 µM) | IC50 (second compound 1 µM) | IC50 (second compound 3.16 µM) | IC50 (second compound 10 µM)

CC(C)n1nc(-c2ccc3oc(N)nc3c2)c2c(N)ncnc21 + Cc1nc(NC(=O)N2CCCC2C(N)=O)sc1-c1ccnc(C(C)(C)C(F)(F)F)c1
0.0213 µM: IC50 (second compound 10 µM)
inactive: viability, T/C [1] 91.4% | viability, T/C [2] 109% | viability, T/C [3] 69.1% | viability, T/C [4] 83.5% | viability, T/C [5] 77.9% | viability, T/C [6] 71.2% | viability, T/C [7] 103% | viability, T/C [8] 77.7% | viability, T/C [9] 88.6% | viability, T/C [10] 81.4% | viability, T/C [11] 84.9% | viability, T/C [12] 55.6% | viability, T/C [13] 65.9% | viability, T/C [14] 68.2% | viability, T/C [15] 80.4% | viability, T/C [16] 81.5% | viability, T/C [17] 75.3% | viability, T/C [18] 68.8% | viability, T/C [19] 70.3% | viability, T/C [20] 80.6% | viability, T/C [21] 73.2% | viability, T/C [22] 91.5% | viability, T/C [23] 75.3% | viability, T/C [24] 57.9% | viability, T/C [25] 77% | viability, T/C [26] 68.9% | viability, T/C [27] 75.2% | viability, T/C [28] 78.1% | viability, T/C [29] 64% | viability, T/C [30] 37.6% | viability, T/C [31] 77.5% | viability, T/C [32] 62.4% | viability, T/C [33] 66.9% | viability, T/C [34] 58.7% | viability, T/C [35] 46.5% | viability, T/C [36] 27.2%
0.0583 µM: IC50 (second compound 3.16 µM)
> 0.1 µM: IC50 (second compound 0.0316 µM) | IC50 (second compound 0.1 µM) | IC50 (second compound 0.316 µM) | IC50 (second compound 1 µM)

CC1(C)CCC(CN2CCN(c3ccc(C(=O)NS(=O)(=O)c4ccc(NCC5CCOCC5)c([N+](=O)[O-])c4)c(Oc4cnc5[nH]ccc5c4)c3)CC2)=C(c2ccc(Cl)cc2)C1 + Cc1nc(NC(=O)N2CCCC2C(N)=O)sc1-c1ccnc(C(C)(C)C(F)(F)F)c1
inactive: viability, T/C [5] 101% | viability, T/C [6] 99.6% | viability, T/C [37] 121% | viability, T/C [38] 103% | viability, T/C [39] 98.7% | viability, T/C [40] 61.4% | viability, T/C [11] 118% | viability, T/C [12] 97.5% | viability, T/C [41] 116% | viability, T/C [42] 99.5% | viability, T/C [43] 110% | viability, T/C [44] 66.2% | viability, T/C [17] 113% | viability, T/C [18] 83.7% | viability, T/C [45] 108% | viability, T/C [46] 91.7% | viability, T/C [47] 80.2% | viability, T/C [48] 66.6% | viability, T/C [23] 102% | viability, T/C [24] 102% | viability, T/C [49] 82.3% | viability, T/C [50] 102% | viability, T/C [51] 100% | viability, T/C [52] 71.5% | viability, T/C [29] 81.4% | viability, T/C [30] 91% | viability, T/C [53] 72.6% | viability, T/C [54] 81.2% | viability, T/C [55] 93.8% | viability, T/C [56] 59% | viability, T/C [35] 83.3% | viability, T/C [36] 76.8% | viability, T/C [57] 69.8% | viability, T/C [58] 71.5% | viability, T/C [59] 75.5% | viability, T/C [60] 63.7%
> 10 µM: IC50 (second compound 0.0316 µM) | IC50 (second compound 0.1 µM) | IC50 (second compound 0.316 µM) | IC50 (second compound 1 µM) | IC50 (second compound 3.16 µM) | IC50 (second compound 10 µM)

CCCS(=O)(=O)Nc1ccc(F)c(C(=O)c2c[nH]c3ncc(-c4ccc(Cl)cc4)cc23)c1F + Cc1nc(NC(=O)N2CCCC2C(N)=O)sc1-c1ccnc(C(C)(C)C(F)(F)F)c1
active: viability, T/C [40] 2.55% | viability, T/C [44] 4.2% | viability, T/C [52] 5.17% | viability, T/C [56] 8.66%
4.36 µM: IC50 (second compound 0.0316 µM)
4.23 µM: IC50 (second compound 3.16 µM)
inactive: viability, T/C [5] 84.6% | viability, T/C [6] 96.3% | viability, T/C [37] 67.6% | viability, T/C [38] 80.9% | viability, T/C [39] 68.5% | viability, T/C [11] 87.3% | viability, T/C [12] 66.7% | viability, T/C [41] 86.7% | viability, T/C [42] 108% | viability, T/C [43] 59.9% | viability, T/C [17] 98.5% | viability, T/C [18] 84.8% | viability, T/C [45] 74.3% | viability, T/C [46] 84.8% | viability, T/C [47] 81.9% | viability, T/C [48] 17.3% | viability, T/C [23] 78% | viability, T/C [24] 84.7% | viability, T/C [49] 71.3% | viability, T/C [50] 67.5% | viability, T/C [51] 73.7% | viability, T/C [29] 68.8% | viability, T/C [30] 66% | viability, T/C [53] 78.5% | viability, T/C [54] 72.5% | viability, T/C [55] 63.4% | viability, T/C [35] 60.4% | viability, T/C [36] 61.4% | viability, T/C [57] 80% | viability, T/C [58] 55.6% | viability, T/C [59] 70.2% | viability, T/C [60] 13.4%
4.46 µM: IC50 (second compound 10 µM)
5.58 µM: IC50 (second compound 0.316 µM)
4.71 µM: IC50 (second compound 1 µM)
3.88 µM: IC50 (second compound 0.1 µM)
